Patent publication US20190365710A1, “METHODS OF TREATING CANCER” (GlaxoSmithKline Intellectual Property Development Limited, priority 2016, published 2019)
Where two headings read alike, the source gives them in different places.

How the values were obtained:
[1] = test system: NSC-LC cell lines; experiment: 6-day growth-death assay (Cell Titer Glo); format: cell-based, human; conditions: for IC50: Homo sapiens, read-out: Median gIC50, Lung (NSCLC); for Median % Ymin − T0: Lung (NSCLC)
[2] = molecular target: PRMT6 (Homo sapiens, UniProt Q96LA8); experiment: biochemical
[3] = test system: arginine methylation in Toledo DLBCL cells; experiment: Western analysis of arginine methylation marks (ADMA, SDMA, MMA); format: cell-based, human
Source text: (B) Representative western blots of arginine methylation marks. Regions quantified are denoted by black bars on the right of the gel.
(B) Representative western blots of arginine methylation marks. Regions quantified for (A) are denoted by black bars on the side of the gel.
As predicted, ADMA methylation decreased while MMA increased upon compound exposure (FIG. 12). […] Given the detection of numerous substrates with varying kinetics, and variability of ADMA levels among DMSO-treated samples, both the full lane and a prominent 45 kDa band were characterized to assess ADMA. Increases in MMA were apparent by 24 hours and near maximal by 48 hours while decreases in the 45 kDa ADMA band required 72-96 hours to achieve maximal effect. Increases in SDMA were apparent after 48 hours of compound exposure and continued to increase through 120 hours, consistent with the potential switch from conversion of MMA to ADMA by Type I PRMTs to SDMA by Type II PRMTs (FIG. 12).
Cells were then washed, cultured in Compound A-free media, samples were collected daily through 120 hours, and arginine methylation levels were examined by western analysis. […] SDMA appeared to continue to increase even after 6 hours of washout. This is consistent with the continued increase observed through 120 hours without any obvious plateau (FIG. 12) coupled with the durable increase in MMA that has not yet returned to baseline after washout. Durability of each modification generally reflected the kinetics of arginine methylation changes brought about by Compound A, with MMA being the most rapid.

[4] = test system: Colon cancer cell lines; experiment: 6-day growth-death assay (Cell Titer Glo); format: cell-based, human
[5] = test system: Lymphoma cell lines; experiment: 6-day growth-death assay (Cell Titer Glo); format: cell-based, human; conditions: for IC50: Homo sapiens, read-out: Median gIC50, Lymphoma
[6] = test system: Kidney cancer cell lines; experiment: 6-day growth-death assay (Cell Titer Glo); format: cell-based, human; conditions: 10 cell lines
[7] = test system: human renal cell carcinoma xenografts (ACHN); experiment: ACHN xenograft tumor growth; format: in vivo, SCID mice; conditions: for Body weight Difference (vs. vehicle): ACHN (ccRCC)
[8] = molecular target: PRMT8 (Homo sapiens, UniProt Q9NR22); experiment: biochemical
[9] = test system: Breast cancer cell lines; experiment: 6-day growth-death assay (Cell Titer Glo); conditions: for IC50: Homo sapiens
Protocol: Cell lines representing triple negative breast cancer (TNBC) are shown in orange; other subtypes are in blue.
(§1) The growth of all cell lines was evaluated over time across a wide range of seeding densities to identify conditions that permitted proliferation throughout the entire 6-day assay. Cells were plated at the optimal seeding density and after overnight incubation, a 20-point 2-fold titration of compound was added and plates were incubated for 6 days. A replicate plate of cells was harvested at the time of compound addition to quantify the starting number of cells (To). Values obtained after the 6 day treatment were expressed as a function of the To value and plotted against compound concentration. The To value was normalized to 100% and represents the number of cells at the time of compound addition. The data were fit with a 4 parameter equation to generate a concentration response curve and the growth IC50 (gIC50) was determined. The gIC50 is the midpoint of the ‘growth window’, the difference between the number of cells at the time of compound addition (T0) and the number of cells after 6 days (DMSO control). The growth-death assay can be used to quantify the net population change, clearly defining cell death (cytotoxicity) as fewer cells compared to the number at the time of compound addition (T0).

[10] = test system: MDA-MB-435S; experiment: 6-day growth-death assay (Cell Titer Glo); format: cell-based, human
Protocol: as §1

[11] = test system: ccRCC cell lines; conditions: only at the highest concentration
[12] = test system: 196 human cancer cell lines; experiment: 6-day growth-death assay (Cell Titer Glo); format: cell-based
[13] = molecular target: PRMT9 (Homo sapiens, UniProt Q6P2P2); experiment: PRMT family radioactive assay; format: biochemical; conditions: Type II; 60 minute SAM:Enzyme:Compound A preincubation
[14] = test system: Prostate cancer cell lines; experiment: 6-day growth-death assay (Cell Titer Glo); format: cell-based, human; conditions: 4 cell lines
[15] = test system: Toledo
Protocol: (§2) FIG. 18: Propidium iodide FACS analysis of cell cycle in human lymphoma cell lines. […] Data represents the average±SEM of biological replicates, n=2.
(§3) By day 7, an increase in the sub-G1 population was apparent at concentrations ≥100 nM.

[16] = test system: OCI-Ly1; conditions: only at this concentration
Protocol: as §2, §3

[17] = test system: U2932; conditions: only at this concentration
Protocol: as §2, §3

[18] = test system: Bladder cancer cell lines; experiment: 6-day growth-death assay (Cell Titer Glo); format: cell-based, human; conditions: for IC50: Homo sapiens, read-out: Median gIC50, Bladder
[19] = test system: Toledo (human DLBCL) xenograft; experiment: Toledo xenograft tumor growth; conditions: for Body weight Difference (vs. vehicle): Toledo (DLBCL)
[20] = test system: AML cell lines; experiment: 6-day growth-death assay (Cell Titer Glo); format: cell-based, human
[21] = molecular target: PRMT5/MEP50 (Homo sapiens, UniProt O14744); experiment: PRMT family radioactive assay; format: biochemical; conditions: Type II; 60 minute SAM:Enzyme:Compound A preincubation
[22] = test system: Melanoma cell lines; experiment: 6-day growth-death assay (Cell Titer Glo); conditions: for IC50: Homo sapiens, read-out: Median gIC50, Melanoma
Protocol: as §1

[23] = test system: HL-60; experiment: 6-day growth-death assay (Cell Titer Glo); format: cell-based; conditions: Homo sapiens, HL-60, 144 h, read-out: gIC50
Protocol: as §1

[24] = test system: SK-MEL-5; experiment: 6-day growth-death assay (Cell Titer Glo); format: cell-based; conditions: Homo sapiens, SK-MEL-5, 144 h, read-out: gIC50
Protocol: as §1

[25] = test system: ACHN; experiment: 6-day growth-death assay (Cell Titer Glo); format: cell-based; conditions: Homo sapiens, 144 h, read-out: gIC50
Protocol: as §1

[26] = test system: A375; experiment: 6-day growth-death assay (Cell Titer Glo); format: cell-based; conditions: Homo sapiens, A-375, 144 h, read-out: gIC50
Protocol: as §1

[27] = 0.4 μM Compound A for 72 hours then washout
[28] = Homo sapiens, 144 h, read-out: Median gIC50

Chain of PRMT6 (Q96LA8 whole entry): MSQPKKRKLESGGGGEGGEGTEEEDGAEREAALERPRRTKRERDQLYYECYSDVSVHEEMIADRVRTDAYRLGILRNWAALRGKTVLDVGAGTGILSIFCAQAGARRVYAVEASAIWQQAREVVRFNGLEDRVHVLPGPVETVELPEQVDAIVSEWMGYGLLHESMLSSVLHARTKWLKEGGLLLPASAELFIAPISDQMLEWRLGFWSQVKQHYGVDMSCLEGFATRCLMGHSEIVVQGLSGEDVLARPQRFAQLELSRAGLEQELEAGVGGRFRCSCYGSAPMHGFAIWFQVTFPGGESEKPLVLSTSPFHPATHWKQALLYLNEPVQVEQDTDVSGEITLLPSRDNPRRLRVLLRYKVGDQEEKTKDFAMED
Chain of PRMT8 (Q9NR22 whole entry): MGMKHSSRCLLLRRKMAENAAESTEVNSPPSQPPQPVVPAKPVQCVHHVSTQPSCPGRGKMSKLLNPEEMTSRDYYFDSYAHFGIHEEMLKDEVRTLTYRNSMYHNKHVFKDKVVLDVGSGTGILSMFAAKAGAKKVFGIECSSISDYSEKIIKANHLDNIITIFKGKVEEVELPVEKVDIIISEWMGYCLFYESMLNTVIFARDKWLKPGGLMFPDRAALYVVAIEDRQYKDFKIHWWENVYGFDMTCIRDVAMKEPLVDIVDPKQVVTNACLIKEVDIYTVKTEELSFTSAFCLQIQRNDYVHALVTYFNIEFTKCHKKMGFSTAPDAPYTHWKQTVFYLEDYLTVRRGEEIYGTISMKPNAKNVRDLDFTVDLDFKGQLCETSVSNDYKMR
Chain of PRMT9 (Q6P2P2 whole entry): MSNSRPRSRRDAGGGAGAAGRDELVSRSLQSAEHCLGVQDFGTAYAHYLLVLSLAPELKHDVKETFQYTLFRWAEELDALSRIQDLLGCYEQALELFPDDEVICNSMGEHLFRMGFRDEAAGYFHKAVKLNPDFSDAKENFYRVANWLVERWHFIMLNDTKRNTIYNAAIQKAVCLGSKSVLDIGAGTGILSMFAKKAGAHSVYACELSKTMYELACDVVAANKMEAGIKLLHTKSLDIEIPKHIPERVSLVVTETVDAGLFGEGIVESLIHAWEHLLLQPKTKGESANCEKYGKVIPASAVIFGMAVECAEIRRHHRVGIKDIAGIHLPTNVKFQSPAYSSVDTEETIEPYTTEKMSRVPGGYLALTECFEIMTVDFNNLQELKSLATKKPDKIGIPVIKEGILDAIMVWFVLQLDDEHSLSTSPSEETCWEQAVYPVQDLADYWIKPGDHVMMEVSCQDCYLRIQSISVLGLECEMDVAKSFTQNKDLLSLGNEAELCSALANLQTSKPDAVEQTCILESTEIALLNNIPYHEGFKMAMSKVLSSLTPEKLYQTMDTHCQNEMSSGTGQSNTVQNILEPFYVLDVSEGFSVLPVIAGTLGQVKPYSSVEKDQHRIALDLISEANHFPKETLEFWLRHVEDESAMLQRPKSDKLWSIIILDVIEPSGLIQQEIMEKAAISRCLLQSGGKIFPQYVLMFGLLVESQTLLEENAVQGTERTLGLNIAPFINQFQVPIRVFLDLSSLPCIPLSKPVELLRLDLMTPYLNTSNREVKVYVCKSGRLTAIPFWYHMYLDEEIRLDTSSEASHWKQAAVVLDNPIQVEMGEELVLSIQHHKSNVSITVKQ
Chain of PRMT5/MEP50 (O14744 whole entry): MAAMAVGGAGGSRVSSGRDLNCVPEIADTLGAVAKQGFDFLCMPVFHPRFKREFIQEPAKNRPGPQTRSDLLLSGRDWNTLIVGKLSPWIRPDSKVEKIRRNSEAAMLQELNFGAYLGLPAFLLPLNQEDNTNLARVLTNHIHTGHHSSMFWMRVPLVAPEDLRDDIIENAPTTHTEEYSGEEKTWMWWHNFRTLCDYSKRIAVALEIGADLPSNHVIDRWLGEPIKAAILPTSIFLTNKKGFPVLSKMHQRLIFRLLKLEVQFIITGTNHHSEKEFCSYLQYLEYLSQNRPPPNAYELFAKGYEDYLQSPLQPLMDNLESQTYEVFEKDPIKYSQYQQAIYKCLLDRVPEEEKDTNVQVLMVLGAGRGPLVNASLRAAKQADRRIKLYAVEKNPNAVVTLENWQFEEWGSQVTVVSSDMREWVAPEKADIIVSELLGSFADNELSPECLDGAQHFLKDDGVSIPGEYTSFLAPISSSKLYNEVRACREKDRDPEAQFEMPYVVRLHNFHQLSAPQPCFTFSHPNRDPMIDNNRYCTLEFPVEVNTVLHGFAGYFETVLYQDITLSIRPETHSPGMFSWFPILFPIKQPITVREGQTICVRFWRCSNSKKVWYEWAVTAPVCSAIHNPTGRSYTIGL
Chain of PRMT5/MEP50 (Q9BQA1 whole entry partner): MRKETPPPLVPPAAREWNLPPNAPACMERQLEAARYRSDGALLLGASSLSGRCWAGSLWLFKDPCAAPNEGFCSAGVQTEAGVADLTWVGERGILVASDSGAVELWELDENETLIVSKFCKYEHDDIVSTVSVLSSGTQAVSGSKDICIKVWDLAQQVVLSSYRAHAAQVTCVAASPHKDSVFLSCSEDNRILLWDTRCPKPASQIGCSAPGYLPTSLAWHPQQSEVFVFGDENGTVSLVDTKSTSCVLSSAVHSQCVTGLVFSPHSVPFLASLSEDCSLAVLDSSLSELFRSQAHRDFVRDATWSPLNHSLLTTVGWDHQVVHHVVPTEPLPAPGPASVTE

SMILES: CCOCC1(COCC)CCC(c2n[nH]cc2CN(C)CCNC)CC1 [Compound A]
- % Cytotoxic (cell lines with negative Ymin−T0) ([1]; 6-day, NSC-LC, 25 cell lines): 16%
- % gIC100 < 2 μM (of cell lines) ([1]; 6-day, NSC-LC, 25 cell lines): 0%
- Median gIC100 ([1]; 6-day, NSC-LC, 25 cell lines): 29.33 µM
- IC50 ([1]; MTAP High): 5000 nM
- IC50 ([1]; MTAP Low): 3000 nM
- Median % Ymin − T0 ([1]; MTAP High): 141%
- Median % Ymin − T0 ([1]; MTAP Low): 237%
- IC50 [2]: 3 to 5 nM
- time after which increases in SDMA were apparent ([3]; 0.4 μM Compound A): 48 h
- time at which increases in MMA were apparent ([3]; 0.4 μM Compound A): ≤ 24 h
- time at which increases in MMA were near maximal ([3]; 0.4 μM Compound A): ≤ 48 h
- time required for maximal decrease in the 45 kDa ADMA band ([3]; 0.4 μM Compound A): 72 to 96 h
- time for ADMA to return to baseline after washout [3, 27]: ≤ 24 h
- time for MMA to return to baseline after washout [3, 27]: ≤ 24 h
- time for SDMA to return to baseline after washout [3, 27]: ≤ 96 h
- % Cytotoxic (cell lines with negative Ymin−T0) ([4]; 6-day, Colon, 34 cell lines): 3%
- % gIC100 < 2 μM (of cell lines) ([4]; 6-day, Colon, 34 cell lines): 0%
- Median gIC100 ([4]; 6-day, Colon, 34 cell lines): 29.33 µM
- IC50 [4, 28]: 5510 nM
- % Cytotoxic (cell lines with negative Ymin−T0) ([5]; 6-day, Lymphoma, 59 cell lines): 54%
- % gIC100 < 2 μM (of cell lines) ([5]; 6-day, Lymphoma, 59 cell lines): 14%
- IC50 ([5]; MTAP High): 600 nM
- IC50 ([5]; MTAP Low): 100 nM
- Median % Ymin − T0 ([5]; Lymphoma, MTAP High): 17%
- Median gIC100 ([5]; Lymphoma, MTAP High): 24.4 µM
- Median % Ymin − T0 ([5]; Lymphoma, MTAP Low): −89%
- Median gIC100 ([5]; Lymphoma, MTAP Low): 5.3 µM
- % Cytotoxic (cell lines with negative Ymin−T0) [6]: 0%
- % gIC100 < 2 μM (of cell lines) [6]: 0%
- Median gIC100 [6]: 29.35 µM
- Body weight Difference (vs. vehicle) ([7]; 150 mg/kg QD oral, Day 59): −3%
- Body weight Difference (vs. vehicle) ([7]; 300 mg/kg QD oral, Day 59): −4%
- Body weight Difference (vs. vehicle) ([7]; 450 mg/kg QD oral, Day 59): −7%
- Body weight Difference (vs. vehicle) ([7]; 600 mg/kg QD oral, arm terminated at day 31): −17%
- body weight loss ([7]; ACHN, 600 mg/kg daily, dosing group terminated on day 31): Significant body weight loss
- IC50 [8]: 3 to 5 nM
- % Cytotoxic (cell lines with negative Ymin−T0) ([9]; 6-day, Breast, 29 cell lines): 10%
- % gIC100 < 2 μM (of cell lines) ([9]; 6-day, Breast, 29 cell lines): 0%
- Median gIC100 ([9]; 6-day, Breast, 29 cell lines): 29.36 µM
- Median % Ymin − T0 ([9]; Breast, MTAP High): 174%
- Median gIC100 ([9]; Breast, MTAP High): 29.4 µM
- Median % Ymin − T0 ([9]; Breast, MTAP Low): 188%
- IC50 ([9]; 144 h, read-out: median gIC50, 6-day, TNBC cell lines): 3600 nM
- IC50 ([9]; 144 h, read-out: median gIC50, 6-day, non-TNBC cell lines): 6800 nM
- IC50 ([9]; read-out: Median gIC50, Breast, MTAP High): 4900 nM
- IC50 ([9]; read-out: Median gIC50, Breast, MTAP Low): 10200 nM
- gIC100 [10]: 29.33 ± 0.00 µM
- concentration at which caspase cleavage occurred [11]: 30 µM
- % Cytotoxic (cell lines with negative Ymin−T0) ([12]; 6-day, Total, 196 cell lines): 23%
- % gIC100 < 2 μM (of cell lines) ([12]; 6-day, Total, 196 cell lines): 4%
- IC50 [12, 28]: 2120 nM
- inhibition of activity [13]: failed to inhibit
- % Cytotoxic (cell lines with negative Ymin−T0) [14]: 0%
- % gIC100 < 2 μM (of cell lines) [14]: 0%
- Compound A concentrations giving accumulation of cells in sub-G1 ([15]; beginning after 3 days of treatment): ≥ 1000 nM
- Compound A concentrations giving increase in the sub-G1 population ([15]; by day 7): ≥ 100 nM
- Compound A concentration at which sub-G1 effect was evident [16]: 10 µM
- Compound A concentration at which sub-G1 effect was evident [17]: 10 µM
- % Cytotoxic (cell lines with negative Ymin−T0) ([18]; 6-day, Bladder, 18 cell lines): 0%
- % gIC100 < 2 μM (of cell lines) ([18]; 6-day, Bladder, 18 cell lines): 0%
- Median % Ymin − T0 ([18]; Bladder, MTAP High): 658%
- Median gIC100 ([18]; Bladder, MTAP High): 29.3 µM
- Median % Ymin − T0 ([18]; Bladder, MTAP Low): 257%
- Median gIC100 ([18]; Bladder, MTAP Low): 29.3 µM
- IC50 ([18]; MTAP High): 7600 nM
- IC50 ([18]; MTAP Low): 1600 nM
- Body weight Difference (vs. vehicle) ([19]; second study, 37.5 mg/kg QD oral, Day 25): −5%
- Body weight Difference (vs. vehicle) ([19]; second study, 75 mg/kg BID oral, Day 25): −4%
- Body weight Difference (vs. vehicle) ([19]; second study, 75 mg/kg QD oral, Day 25): −5%
- Body weight Difference (vs. vehicle) ([19]; second study, 150 mg/kg QD oral, Day 25): −7%
- Body weight Difference (vs. vehicle) ([19]; 150 mg/kg QD oral, Day 28): −4%
- Body weight Difference (vs. vehicle) ([19]; 300 mg/kg QD oral, Day 28): −3%
- Body weight Difference (vs. vehicle) ([19]; 450 mg/kg QD oral, Day 28): −8%
- Body weight Difference (vs. vehicle) ([19]; 600 mg/kg QD oral, Day 28): −7%
- body weight loss ([19]; Toledo, any dose group): No significant body weight loss
- % Cytotoxic (cell lines with negative Ymin−T0) ([20]; 6-day, AML, 10 cell lines): 50%
- % gIC100 < 2 μM (of cell lines) ([20]; 6-day, AML, 10 cell lines): 0%
- Median gIC100 ([20]; 6-day, AML, 10 cell lines): 16.72 µM
- number of cell lines in which cytotoxicity was induced ([20]; 6-day, of 10 AML cell lines): 5
- IC50 [20, 28]: 540 nM
- inhibition of activity [21]: failed to inhibit
- % Cytotoxic (cell lines with negative Ymin−T0) ([22]; 6-day, Melanoma, 7 cell lines): 0%
- % gIC100 < 2 μM (of cell lines) ([22]; 6-day, Melanoma, 7 cell lines): 0%
- Median gIC100 ([22]; 6-day, Melanoma, 7 cell lines): 29.33 µM
- IC50 ([22]; MTAP High): 1900 nM
- IC50 ([22]; MTAP Low): 300 nM
- Median % Ymin − T0 ([22]; Melanoma, MTAP High): 214%
- Median gIC100 ([22]; Melanoma, MTAP High): 29.4 µM
- Median % Ymin − T0 ([22]; Melanoma, MTAP Low): 53%
- IC50 [23]: 20 ± 10 nM
- IC50 [24]: 90 ± 30 nM
- IC50 [25]: 100 ± 50 nM
- IC50 [26]: 50 ± 30 nM
